Where “and” joins values, the source holds several entries; their conditions need not be identical. Identical values can stand only once.
Key:
[1] = biological target: Mast/stem cell growth factor receptor Kit (Homo sapiens, UniProt P10721)
[2] = Mean % inhibition of induced angiogenesis by Vascular endothelial growth factor (VEGF) at a peroral dose of 50 mg/kg in mice; format: functional; conditions: Mus musculus, route oral
[3] = biological target: Insulin-like growth factor 1 receptor (Homo sapiens, UniProt P08069); test: In vitro inhibition of Insulin-like growth factor I receptor expressed in baculovirus
Sequence of Insulin-like growth factor 1 receptor (P08069 31-736 limits assumed): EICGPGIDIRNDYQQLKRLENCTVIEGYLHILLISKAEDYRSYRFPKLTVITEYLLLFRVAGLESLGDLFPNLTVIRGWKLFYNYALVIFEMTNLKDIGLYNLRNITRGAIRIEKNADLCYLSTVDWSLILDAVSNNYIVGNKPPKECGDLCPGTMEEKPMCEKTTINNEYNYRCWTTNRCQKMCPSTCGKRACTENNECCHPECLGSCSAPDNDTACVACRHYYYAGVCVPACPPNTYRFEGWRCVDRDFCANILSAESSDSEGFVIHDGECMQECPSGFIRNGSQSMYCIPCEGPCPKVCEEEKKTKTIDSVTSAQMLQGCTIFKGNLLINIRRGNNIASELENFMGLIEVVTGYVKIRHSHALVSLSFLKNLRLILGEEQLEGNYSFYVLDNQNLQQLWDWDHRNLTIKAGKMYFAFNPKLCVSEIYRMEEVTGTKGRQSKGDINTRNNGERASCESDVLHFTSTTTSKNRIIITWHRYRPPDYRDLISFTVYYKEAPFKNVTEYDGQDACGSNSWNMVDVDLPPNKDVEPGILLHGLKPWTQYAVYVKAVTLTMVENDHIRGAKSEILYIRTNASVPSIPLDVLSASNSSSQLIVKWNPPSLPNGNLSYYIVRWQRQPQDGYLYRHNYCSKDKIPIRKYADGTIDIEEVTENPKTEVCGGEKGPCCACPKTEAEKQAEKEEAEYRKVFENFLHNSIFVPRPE
Sequence of Insulin-like growth factor 1 receptor (P08069 741-1367 limits assumed): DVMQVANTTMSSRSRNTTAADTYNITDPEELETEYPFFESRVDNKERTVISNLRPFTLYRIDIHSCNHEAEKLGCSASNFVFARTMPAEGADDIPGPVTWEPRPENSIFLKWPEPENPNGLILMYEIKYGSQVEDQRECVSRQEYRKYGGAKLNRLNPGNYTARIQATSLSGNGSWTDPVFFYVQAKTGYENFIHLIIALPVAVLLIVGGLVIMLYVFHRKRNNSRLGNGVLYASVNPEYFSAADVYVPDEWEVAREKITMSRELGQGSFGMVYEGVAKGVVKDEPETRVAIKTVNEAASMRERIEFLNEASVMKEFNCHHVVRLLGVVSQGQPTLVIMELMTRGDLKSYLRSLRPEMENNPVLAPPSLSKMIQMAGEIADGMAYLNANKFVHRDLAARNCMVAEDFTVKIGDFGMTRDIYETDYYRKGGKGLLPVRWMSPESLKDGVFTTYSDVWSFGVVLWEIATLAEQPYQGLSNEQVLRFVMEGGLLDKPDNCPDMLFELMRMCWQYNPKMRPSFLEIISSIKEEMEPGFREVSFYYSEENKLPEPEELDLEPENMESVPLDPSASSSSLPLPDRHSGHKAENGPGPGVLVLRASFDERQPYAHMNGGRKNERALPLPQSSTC

[4] = biological target: Fibroblast growth factor receptor 1 (Homo sapiens, UniProt P11362)
[5] = biological target: Angiopoietin-1 receptor (Homo sapiens, UniProt Q02763); test: In vitro inhibition of Tyrosine protein kinase receptor TIE-2 (Tek) expressed in baculovirus
Sequence of Angiopoietin-1 receptor (Q02763 whole entry): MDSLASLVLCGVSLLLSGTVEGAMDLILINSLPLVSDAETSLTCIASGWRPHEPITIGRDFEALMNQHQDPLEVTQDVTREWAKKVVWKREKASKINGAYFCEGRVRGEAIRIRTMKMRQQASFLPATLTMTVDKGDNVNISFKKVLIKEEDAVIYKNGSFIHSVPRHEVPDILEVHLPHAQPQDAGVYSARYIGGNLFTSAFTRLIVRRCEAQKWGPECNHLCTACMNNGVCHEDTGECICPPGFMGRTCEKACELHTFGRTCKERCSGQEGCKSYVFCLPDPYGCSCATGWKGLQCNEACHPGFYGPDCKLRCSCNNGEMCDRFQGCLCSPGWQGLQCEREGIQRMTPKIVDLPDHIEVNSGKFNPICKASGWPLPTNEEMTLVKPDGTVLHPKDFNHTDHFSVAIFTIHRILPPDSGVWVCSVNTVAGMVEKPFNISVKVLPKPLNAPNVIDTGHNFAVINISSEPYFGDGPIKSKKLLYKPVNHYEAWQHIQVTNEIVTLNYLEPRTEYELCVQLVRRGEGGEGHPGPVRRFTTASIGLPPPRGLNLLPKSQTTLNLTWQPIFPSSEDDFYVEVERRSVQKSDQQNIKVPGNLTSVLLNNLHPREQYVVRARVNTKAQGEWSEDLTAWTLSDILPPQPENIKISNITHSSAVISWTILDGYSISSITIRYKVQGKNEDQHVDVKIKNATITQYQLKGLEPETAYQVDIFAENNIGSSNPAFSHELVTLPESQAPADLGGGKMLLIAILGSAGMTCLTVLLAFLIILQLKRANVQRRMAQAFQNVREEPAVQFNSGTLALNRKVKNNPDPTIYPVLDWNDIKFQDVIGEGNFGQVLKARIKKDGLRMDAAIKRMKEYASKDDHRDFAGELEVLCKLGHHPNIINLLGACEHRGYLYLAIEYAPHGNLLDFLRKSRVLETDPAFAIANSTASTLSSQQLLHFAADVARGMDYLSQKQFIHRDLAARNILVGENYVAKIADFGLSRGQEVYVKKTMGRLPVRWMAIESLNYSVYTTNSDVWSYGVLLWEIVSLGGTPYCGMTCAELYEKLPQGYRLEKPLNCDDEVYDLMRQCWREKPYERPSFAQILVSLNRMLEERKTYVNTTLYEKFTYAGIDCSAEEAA

[6] = biological target: Cyclin-dependent kinase 1 (Homo sapiens, UniProt P06493); test: In vitro inhibition of Cyclin-dependent kinase 1 (CDK-1) expressed in baculovirus
Sequence of Cyclin-dependent kinase 1 (P06493 whole entry): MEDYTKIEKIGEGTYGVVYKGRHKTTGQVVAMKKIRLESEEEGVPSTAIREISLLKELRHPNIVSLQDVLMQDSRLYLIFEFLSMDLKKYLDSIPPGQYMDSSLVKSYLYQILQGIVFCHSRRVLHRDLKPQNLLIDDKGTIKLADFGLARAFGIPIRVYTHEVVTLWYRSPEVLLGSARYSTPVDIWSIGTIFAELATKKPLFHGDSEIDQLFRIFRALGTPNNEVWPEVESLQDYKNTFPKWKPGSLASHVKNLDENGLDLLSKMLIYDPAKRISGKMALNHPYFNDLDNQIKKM

[7] = system: B16; test: Mean % inhibition of primary tumor growth in B16 mouse administration; format: functional
[8] = biological target: Proto-oncogene tyrosine-protein kinase Src (Homo sapiens, UniProt P12931)
Sequence of Proto-oncogene tyrosine-protein kinase Src (P12931 2-536 limits assumed): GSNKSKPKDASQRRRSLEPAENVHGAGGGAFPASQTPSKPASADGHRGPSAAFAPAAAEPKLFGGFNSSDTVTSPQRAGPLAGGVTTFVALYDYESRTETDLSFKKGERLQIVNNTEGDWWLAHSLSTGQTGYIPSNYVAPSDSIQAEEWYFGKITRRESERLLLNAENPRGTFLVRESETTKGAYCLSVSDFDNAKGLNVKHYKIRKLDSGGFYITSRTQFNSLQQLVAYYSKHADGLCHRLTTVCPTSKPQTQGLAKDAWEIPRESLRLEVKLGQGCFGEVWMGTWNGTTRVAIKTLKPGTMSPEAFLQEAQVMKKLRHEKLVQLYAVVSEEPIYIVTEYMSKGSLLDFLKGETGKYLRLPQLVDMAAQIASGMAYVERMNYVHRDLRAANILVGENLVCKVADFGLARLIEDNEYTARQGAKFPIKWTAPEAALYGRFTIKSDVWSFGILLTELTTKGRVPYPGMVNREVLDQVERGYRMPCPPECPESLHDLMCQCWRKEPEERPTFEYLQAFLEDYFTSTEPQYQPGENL

[9] = biological target: Macrophage colony-stimulating factor 1 receptor (Homo sapiens, UniProt P07333)
[10] = system: B16; test: Mean % inhibition of lymph node metastasis in B16 mouse administration; format: functional
[11] = biological target: Hepatocyte growth factor receptor (Homo sapiens, UniProt P08581); test: In vitro inhibition of Met proto-oncogene tyrosine kinase (c-Met) expressed in baculovirus
[12] = biological target: Tyrosine-protein kinase ABL1 (Homo sapiens, UniProt P00519)
Sequence of Tyrosine-protein kinase ABL1 (P00519 whole entry): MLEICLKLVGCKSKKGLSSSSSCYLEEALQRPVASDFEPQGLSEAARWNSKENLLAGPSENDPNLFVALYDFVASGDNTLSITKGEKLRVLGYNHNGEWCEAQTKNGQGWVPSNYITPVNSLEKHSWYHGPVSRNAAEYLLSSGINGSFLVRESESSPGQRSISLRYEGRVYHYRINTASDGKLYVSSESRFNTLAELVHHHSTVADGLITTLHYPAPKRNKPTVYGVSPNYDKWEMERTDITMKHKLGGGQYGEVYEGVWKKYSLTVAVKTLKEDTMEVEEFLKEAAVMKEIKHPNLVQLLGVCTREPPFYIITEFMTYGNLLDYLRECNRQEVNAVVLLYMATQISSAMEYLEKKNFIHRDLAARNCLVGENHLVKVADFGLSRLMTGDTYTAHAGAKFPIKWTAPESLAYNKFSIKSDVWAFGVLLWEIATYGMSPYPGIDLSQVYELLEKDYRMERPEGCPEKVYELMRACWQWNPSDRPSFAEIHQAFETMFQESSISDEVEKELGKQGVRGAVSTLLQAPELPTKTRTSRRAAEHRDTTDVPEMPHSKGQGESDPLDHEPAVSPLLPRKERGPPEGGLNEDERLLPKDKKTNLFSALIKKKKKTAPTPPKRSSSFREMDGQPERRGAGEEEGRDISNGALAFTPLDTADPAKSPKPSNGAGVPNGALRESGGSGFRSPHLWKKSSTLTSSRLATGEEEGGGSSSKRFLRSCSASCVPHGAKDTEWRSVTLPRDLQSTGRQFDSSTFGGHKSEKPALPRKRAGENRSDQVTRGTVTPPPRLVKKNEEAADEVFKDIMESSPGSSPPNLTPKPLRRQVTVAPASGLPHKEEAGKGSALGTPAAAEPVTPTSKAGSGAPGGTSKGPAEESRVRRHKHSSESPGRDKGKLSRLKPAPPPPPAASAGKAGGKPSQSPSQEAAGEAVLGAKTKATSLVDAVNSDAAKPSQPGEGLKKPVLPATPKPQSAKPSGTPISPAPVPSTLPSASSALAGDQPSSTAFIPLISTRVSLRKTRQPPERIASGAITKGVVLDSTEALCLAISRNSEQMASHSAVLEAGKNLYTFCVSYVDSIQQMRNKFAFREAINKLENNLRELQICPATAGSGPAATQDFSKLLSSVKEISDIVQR

[13] = system: B16; test: Mean % inhibition of lymph node metastasis in B16 mouse administration.; format: functional
[14] = biological target: Fibroblast growth factor receptor 1 (Mus musculus) (UniProt P16092); test: Mean % inhibition of induced angiogenesis by Heparin-binding growth factor 2 after intraperitoneal dose of 100 mg/kg in mice; format: functional, organism-based; design: dose 100 mg/kg
[15] = biological target: Vascular endothelial growth factor receptor 3 (Homo sapiens, UniProt P35916); test: In vitro inhibition of Vascular endothelial growth factor receptor 3 [VEGFR-3(Flt-4)] expressed in baculovirus
[16] = Mean % inhibition of induced angiogenesis by Vascular endothelial growth factor (VEGF) after intraperitoneal dose of 100 mg/kg in mice; format: functional; conditions: Mus musculus, ip
[17] = species: Mus musculus
[18] = biological target: Platelet-derived growth factor receptor beta (Homo sapiens, UniProt P09619)
[19] = biological target: T1, Vascular endothelial growth factor receptor 2 (Homo sapiens, UniProt P35968)
[20] = species: Mus musculus; remark: listed apart in the source
[21] = biological target: Vascular endothelial growth factor receptor 1 (Homo sapiens, UniProt P17948)
[22] = species: Mus musculus; remark: listed apart in the source
[23] = biological target: T1, Vascular endothelial growth factor receptor 2; remark: listed apart in the source
[24] = species: Mus musculus; remark: listed apart in the source

Row | SMILES | IC50 [1] [µM] | inhibition in vivo at 50 mg/kg [2] [%] | IC50 [3] [µM] | IC50 [4] [µM] | IC50 [5] [µM] | IC50 [6] [µM] | Inhibition [7] | IC50 [8] [µM] | IC50 [9] [µM] | Inhibition [10] [%] | IC50 [11] [µM] | IC50 [12] [µM] | IC50 [15] [µM] | further results
1 | O=C(Nc1cccc(C(F)(F)F)c1)c1ccccc1NCc1ccncc1 | 0.236 | 84 | > 10 | > 10 | > 10 | > 10 | 44% | > 10 | 0.38 | 85 | > 10 | 2.82 | – | –
2 | COc1cc2/c(=N/c3ccc(Br)cc3F)nc[nH]c2cc1OCC1CCN(C)CC1 [VANDETANIB] | – | 71 | – | – | – | – | 60% | – | – | – | – | – | – | Inhibition [13]: 61%
3 | Cc1cc(C)c(/C=C2\C(=O)Nc3ccccc32)[nH]1 [SEMAXANIB] | – | – | > 10 | – | > 10 | > 10 | – | – | – | – | – | – | 0.05 | inhibition [14]: 87%; inhibition in vivo at 100 mg/kg [16]: 65%
4 | O=C(Nc1cccc(-c2cncc3ccccc23)c1)c1ccccc1NCc1ccncc1 | 0.105 | 100 | 6.4 | 5.1 | 6.8 | > 10 | 39% and 73% | > 10 | 0.099 | – | > 10 | 5.33 | 0.052 | Plasma concentration [17]: 1.9 µM l-1; IC50 [18]: 0.357 µM; IC50 [19]: 0.00116 µM; Plasma concentration [20]: 1.6 µM l-1; IC50 [21]: 0.13 µM; Plasma concentration [22]: 1.9 µM l-1; IC50 [23]: 0.009 µM; Plasma concentration [24]: 3.4 µM l-1
5 | Clc1ccc(Nc2nnc(Cc3ccncc3)c3ccccc23)cc1.O=C(O)CCC(=O)O | – | 68 | – | – | – | – | 34% | – | – | 55 | – | – | – | –
